Drawing on patent EP1220857B1, “GONADOTROPIN RELEASING HORMONE RECEPTOR ANTAGONISTS AND THEIR RELATED METHODS OF USE” (NEUROCRINE BIOSCIENCES, INC., priority 1999, dated 2001), this text covers Ki for five molecules.

For this test, the target named is T1, GnRH receptor (Homo sapiens, UniProt P30968).
T1 construct: expressed in transfected cells
T1 sequence (P30968 1-328): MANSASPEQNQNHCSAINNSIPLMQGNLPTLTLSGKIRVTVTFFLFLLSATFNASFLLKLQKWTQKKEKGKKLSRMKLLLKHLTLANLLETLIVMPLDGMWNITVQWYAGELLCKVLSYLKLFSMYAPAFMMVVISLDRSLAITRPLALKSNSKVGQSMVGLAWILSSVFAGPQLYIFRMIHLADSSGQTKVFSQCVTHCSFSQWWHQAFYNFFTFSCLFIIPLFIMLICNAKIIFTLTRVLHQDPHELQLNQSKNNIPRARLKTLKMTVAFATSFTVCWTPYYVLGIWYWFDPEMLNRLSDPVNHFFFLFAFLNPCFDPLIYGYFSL
The experiment in a line: GnRH receptor membrane binding assay. The conditions noted are these: displacement of [125I]-labeled GnRH peptide from membranes of cells transfected with GnRH receptor expression vectors; Ki by Cheng-Prusoff. As to the method: Activity of GnRH receptor antagonists are typically calculated from the IC50 as the concentration of a compound necessary to displace 50% of the radiolabeled ligand from the GnRH receptor, and is reported as a "Ki" value calculated by the following equation: Ki =(IC50)/(1 + L / KD) [formula] where L = radioligand and KD = affinity of radioligand for receptor (Cheng and Prusoff, Biochem. Pharmacol. 22:3099, 1973). GnRH receptor antagonists of this invention have a Ki of 100 µM or less. In a preferred embodiment of this invention, the GnRH receptor antagonists have a Ki of less than 10 µM, and more preferably less than 1µM. More preferred compounds include: 1-1, 1-2-5, 12, 13-15, 19, 21, 27, 31, 32, 34, 37, 55, 58, 64, 73, 2B, 2D, 3A, 3B, 3D, 4A, 4B, 4C, 4D, 4G, 4H, 5A and 5B (see Examples below).
The GnRH analog is labeled by the chloramine-T method. To 10 µg of peptide in 20 µl of 0.5M sodium phosphate buffer, pH 7.6, is added 1 mCi of Na125I, followed by 22.5 µg chloramine-T and the mixture vortexed for 20 sec. The reaction is stopped by the addition of 60 µg sodium metabisulfite and the free iodine is removed by passing the iodinated mixture through a C-8 Sep-Pak cartridge (Millipore Corp., Milford, MA). The peptide is eluted with a small volume of 80% acetonitrile/water. The recovered labeled peptide is further purified by reverse phase HPLC on a Vydac C-18 analytical column (The Separations Group, Hesperia, CA) on a Beckman 334 gradient HPLC system using a gradient of acetonitrile in 0.1% TFA. The purified radioactive peptide is stored in 0.1 % BSA/20% acetonitrile/0.1% TFA at -800C and can be used for up to 4 weeks.
Cells stably, or transiently, transfected with GnRH receptor expression vectors are harvested, resuspended in 5% sucrose and homogenized using a polytron homogenizer (2x 15 sec). Nuclei are removed by centrifugation (3000 x g for 5 min.), and the supernatant centrifuged (20,000 x g for 30 min, 4° C) to collect the membrane fraction. The final membrane preparation is resuspended in binding buffer (10mM Hepes (pH 7.5), 150 mM NaCl, and 0.1% BSA) and stored at -70°C. Binding reactions are performed in a Millipore MultiScreen 96-well filtration plate assembly with polyethylenimine coated GF/C membranes. The reaction is initiated by adding membranes (40 ug protein in 130 ul binding buffer) to 50ul of [^125I]-labeled GnRH peptide (~100,000 cpm), and 20ul of competitor at varying concentrations. The reaction is terminated after 90 minutes by application of vacuum and washing (2X) with phosphate buffered saline. Bound radioactivity is measured using 96-well scintillation counting (Packard Topcount) or by removing the filters from the plate and direct gamma counting. Ki values are calculated from competition binding data using non-linear least squares regression using the Prism software package (GraphPad Software).
Background: Displacement assays read how much labelled ligand stays bound in the presence of the test substance.
Broadly, the Ki is the equilibrium dissociation constant of an inhibitor or competing ligand from its target. Read a high Ki as a looser hold on the target. In the case of `CCOC(=O)c1cn(Cc2ccccc2F)c2cc(C(C)(C)C)c(CN(C)CCc3ccccn3)n2c1=O` [Example 2B], the Ki was less than 1000 nM.
`CN(CCc1ccccn1)Cc1c(C(C)(C)C)cc2n(Cc3ccccc3F)cc(C(=O)NCCCc3ccccc3)c(=O)n12` [Example 2D] registered a Ki of less than 1000 nM.
To `COc1cccc(-c2c(C)n(Cc3ccccc3F)c3nc(C(C)(C)C)c(CNCCc4ccccc4F)n3c2=O)c1` [Example 3A, 2-(tert-Butyl)-3-[N-(2-fluorophenyl)ethyl]aminomethyl-5-(3-methoxyphenyl)-6-methyl-7-(2-fluorobenzyl)imidazolo[1,2-a]pyrimid-4-one] belongs less than 1000 nM; to `COc1cccc(-c2c(C)n(Cc3ccccc3F)c3nc(C(C)(C)C)c(CNCCc4ccccn4)n3c2=O)c1` [Example 3B], less than 1000 nM.
Regarding `COc1cccc(-c2c(C)n(Cc3ccccc3F)c3nc(C(C)(C)C)c(CNCc4ccccn4)n3c2=O)c1` [Example 3D, 3-(N-(2-Pyridylmethyl))aminomethyl-2-(tert-butyl)-6-methyl-7-(2-fluorobenzyl)-5-(3-methoxyphenyl)imidazolo[1,2-a]pyrimid-4-one], the Ki is less than 1000 nM.
